The subject of test [1] is WTB. Description: Trap type: clear sticky panel vs 4-unit Lindgren funnel traps baited with X. Type of test: in vivo, Pityophthorus juglandis. Conditions: for trap catches, female WTB / trap catches, male WTB: 5 mg/d, 15 ml load. On the procedure:
In another set of experiments, the response of WTB to clear sticky panel traps and 4-unit Lindgren funnel traps was tested. Both were baited with 3-methyl-2-buten-1-ol (5 mg/d, 15 ml load). The clear plexiglass panel traps were coated with Stikem Special (Seabright Labs, Emeryville, Calif.). The experiment was conducted in late spring in a native riparian stand of J. hindsii at Shadow Cliffs Regional Park, Alameda Co., Calif. The pairs of traps were hung at a height of 3 m in the crowns of J. hindsii and arranged in six spatial blocks. Treatments were re-randomized among the trap stations each time that the traps were emptied (approx. weekly, after periodic WTB flights). Trap catches of males and females were normalized by the available trapping surface area for each trap type.
Statistical Analyses. Analyses of treatment effects for the tests of trap type were performed by using Friedman's non-parametric analysis of variance or a sign test, depending on the number of treatments. (See Zar, J. H. 2010. Biostatistical Analysis. 5th ed. Pearson Prentice Hall, Englewood Cliffs, N.J.) Analysis of treatment effects for the Rain•X experiment was performed by using a Wilcoxon paired sample test. Id. Multiple comparisons for experiments with more than two treatments were performed with an a posteriori Nemenyi test with experimentwise α=0.05. Id. In all cases, male and female WTB were analyzed separately. Proportions of female WTB responding to treatments were calculated and 95% confidence intervals determined by using the Clopper-Pearson method. Id.

In test [2] the test system is walnut twig beetle (WTB), Pityophthorus juglandis. Description: Example 1 Field Test 3: flight response to X with and without enantiomers of trans-conophthorin. It counts as in vivo. Conditions: yellow sticky card traps, Pleasanton CA. On the procedure: Field Bioassays of Semiochemicals. To test the attractiveness of the various compounds of interest, some of the commercially available materials listed above were poured into 15 ml capped polyethylene bottles (Product #s A1-1050/002, A1-1055/002; Contech Enterprises Inc., Delta, British Columbia, Canada) and attached to yellow sticky card traps (Trécé, Adair, OK). In addition, synthesized (+) and (−) enantiomers of trans-conophthorin were tested in 400 μl polyethylene Eppendorf microcentrifuge tubes. Four field studies were conducted (Table 2) that tested the flight responses to: 3-methyl-2-buten-l-ol and related isomers (Field Test 1); 3-methyl-2-buten-l-ol with and without racemic trans-conophthorin (Field Test 2); 3-methyl-2-buten-l-ol with and without the purified enantiomers of trans-conophthorin (Field Test 3); and 3-methyl-2-buten-l-ol with and without racemic chalcogran (Field Test 4).
Statistical Analysis. Field Tests 1-4 were each analyzed for treatment effect by using Friedman's non-parametric analysis of variance. (See Zar, J. H. 2010. Biostatistical Analysis, 5th Ed. Pearson Prentice Hall, New Jersey). Males and females were subjected to separate analyses. All treatments within experiments yielding a significant treatment effect were compared by using an a posteriori Nemenyi test (Zar 2010) with experimentwise α=0.05. Sex ratios of responding WTB were determined using Cochran's method for unbiased sampling (See Cochran, W. G. 1977. Sampling Techniques, 3rd ed. John Wiley, New York), with 95% confidence intervals calculated by using the Clopper-Pearson method. (See Zar, J. H. 2010. Biostatistical Analysis, 5th Ed. Pearson Prentice Hall, New Jersey).

Test [3] has as its system WTB. Description: Two release rate (pouch vs. bottle) experiment, 4-unit Lindgren funnel traps. Type of test: in vivo, Pityophthorus juglandis. The note with it: for trap catches, female WTB / trap catches, male WTB: N=40. The protocol:
Field Testing of Various Release Rates of 3-methyl-2-buten-1-ol. The flight response of WTB to two release rates of 3-methyl-2-buten-1-ol was tested at the Wolfskill Experimental Orchards (the Juglans collection of the USDA ARS National Clonal Germplasm Repository in Winters, Solano Co., Calif.) in late spring. The two release rates were: 1) 15-80 mg/d (depending on temperature, as per manufacturer's data), delivered from a commercially available LDPE plastic pouch (Product #300000736, RD-1039, Contech Enterprises Inc., Delta, BC, Canada); and 2) 5 mg/d (based on laboratory assessments at 25° C. and 30° C.), delivered from a 15 ml polyethylene bottle charged with 15 ml of 3-methyl-2-buten-1-ol [≧98% chemical purity, product #W364703, SAFC (=Sigma-Aldrich), St. Louis Mo.]. The pouch or bottle was suspended in the middle of a 4-unit Lindgren funnel trap (Contech), attached to the funnel strut so it rested on the inside surface of the third funnel (counted from the trap top), without blocking the central axis/interior hole of the trap. The trap cup was filled with propylene glycol-based recreational vehicle/marine antifreeze to a depth of about 2.5 to 5 cm, and the traps were hung from poles at a height of approximately 3 m. (See Seybold, S. J., Dallara, P. L., Hishinuma, S. M., and Flint, M. L. Detecting and Identifying the Walnut Twig Beetle: Monitoring Guidelines for the Invasive Vector of Thousand Cankers Disease of Walnut, University of California Agriculture and Natural Resources, Statewide Integrated Pest Management Program, 11 pp., Apr. 30, 2012). The two treatments were replicated in four spatial blocks and the treatments were re-randomized between the two trap stations in a block each time the traps were emptied (nearly every day).
Statistical Analyses. Analysis of treatment effects for the pouch vs. bottle experiment was done by using a sign test. (See Zar, J. H. 2010. Biostatistical Analysis. 5th ed. Pearson Prentice Hall, Englewood Cliffs, N.J.) The other four experiments were analyzed for treatment effect by using Friedman's non-parametric analysis of variance. Id. In all experiments, males and females were analyzed separately. All treatments within experiments yielding a significant treatment effect were compared by using an a posteriori Nemenyi test with experimentwise α=0.05. Id. For all experiments, differences among proportions of female WTB responding to treatments were analyzed by comparing 95% confidence intervals determined with the Clopper-Pearson method. Id.

The mark [4] stands for this setting: release rate 5 mg/d (bottle with 15 ml load).
Setting [5] is: release rate 15-80 mg/d (pouch).

Turning to `CC(C)=CCO` [X, 3-methyl-2-buten-1-ol], the “trap catches, female WTB” value in test [1] (4-unit Lindgren funnel traps) turned out to be 160; in test [1] (clear sticky panel traps) it was 449; in test [2] (about one month in fall, N=15) it was 47; in test [3] (setting [4]), 3072; in test [3] (setting [5]) it was 3085. Further, the “trap catches, male WTB” value in test [1] (4-unit Lindgren funnel traps) amounted to 110; in test [1] (clear sticky panel traps) it was 216; in test [2] (about one month in fall, N=15), 12; in test [3] (setting [4]), 1828; in test [3] (setting [5]), 1284. The “proportion of females responding” value in test [1] (funnel traps) is 0.59; in test [1] (sticky traps), 0.67; in test [2], 0.80; in test [3] (higher release rate (15-80 mg/d)) it was 0.71; in test [3] (lower release rate (5 mg/d)), 0.63. In test [3] (two-sided sign test, pouch vs bottle), the “difference between release rate treatments” value is recorded as “male response was greater for the lower release rate plastic bottle treatment”.

These data come from patent US20130014428A1, “METHODS OF MONITORING AND CONTROLLING THE WALNUT TWIG BEETLE, PITYOPHTHORUS JUGLANDIS” (The United States of America as Represented by the …, priority 2011, published 2013).
